Converted amounts (≈) assume the structure as drawn. “And” between values parts separate entries of the source, which are not always exact repeats. Equal entries are not always repeated. Where two headings read alike, the source gives them in different places.

Data set [1] deals with T1, α-glucosidase from Saccharomyces cerevisiae (Saccharomyces cerevisiae, UniProt P53341).
T1 construct: purchased Sigma-Aldrich (Germany)
Description: α-glucosidase inhibitory assay (p-NPG, 96-well microplate). Type of data set: biochemical. The note with it: pure compound at 500 µg/mL, triplicate. Here is the method: Spectrophotometric measurements were conducted using a Multiskan GO Spectrophotometer (Thermo-Fisher Scientific). The %Inhibition was calculated from the formula % inhibition=(AControl− ASample/AControl )×100
The α-glucosidase inhibitory activity was conducted in a 96-well microplate using 4-nitrophenyl-α-D-glucopyranoside (p-NPG), as reported previously. […] […] The microplate with samples and enzyme solution was initially incubated for 5 min at 37 °C. […] The reaction was allowed to run for 10 min and afterward stopped by adding 50 µL of 0.1 M Na2CO3. The absorbance was measured at 405 nm. All of the samples were tested in triplicate.
The readings were reduced by absorbance of the sample blanks measured separately for each extract/polyphenol, which consisted of 50 µL of extract diluted in 150 µL of buffer solution only, while values obtained for uninhibited controls were reduced by absorbance values of the buffer solution (buffer blank). The activity was expressed as %inhibition. The half-maximal inhibitory concentration (IC50) values, defined as concentration of inhibitor necessary to reduce the rate of an enzymatic process by 50%, were calculated as follows: IC50=sample concentration ×50/% inhibition

On the set-up of data set [2]: method as in PMID 35458630, PMID 36673365. The note with it: after consumption of ellagitannin-rich foods; cited from earlier work.
The target of data set [3] is T1, α-glucosidase from Saccharomyces cerevisiae. Description: Kinetics of α-glucosidase inhibition (Lineweaver–Burk, varying inhibitor and p-NPG concentrations). Conditions: for Inhibition Type (mode of α-glucosidase inhibition): Lineweaver–Burk plots, p-NPG 1–20 mM, enzyme 0.25 U/mL. In kind it is biochemical. On the procedure:
The readings were reduced by absorbance of the sample blanks measured separately for each extract/polyphenol, which consisted of 50 µL of extract diluted in 150 µL of buffer solution only, while values obtained for uninhibited controls were reduced by absorbance values of the buffer solution (buffer blank). The activity was expressed as %inhibition. The half-maximal inhibitory concentration (IC50) values, defined as concentration of inhibitor necessary to reduce the rate of an enzymatic process by 50%, were calculated as follows: IC50=sample concentration ×50/% inhibition […]
Inhibition modes of α-glucosidase were determined according to Chu et al.. […] After 5 min of preincubation, the addition of the substrate started the reaction, and the changes in absorbance were measured at 30 s intervals. The uninhibited reaction was also run. The reaction was terminated after 10 min, and the absorbance values obtained in the kinetic study were used to create Lineweaver–Burk plots of 1/v against 1/[S].
S3. Ability of α‐glucosidase inhibition by C. incanus
Figure S1. Inhibition of α‐glucosidase by C. incanus extracts at different concentrations.
The absorbance values have been used to determine the changes in Michaelis con‐ stant (Km) and maximum velocity of reaction (Vmax). At first, the change in absorbance over time was converted to absorbance units per minute and then expressed as micromoles of chromogenic product (p‐Np) liberated in the enzymatic reaction in order to determine reaction velocity. The molar extinction coefficient of p‐NP used in the calculation was de‐ termined from its standard curve. The reciprocal of reaction velocity values of each tested compound and extract at different substrate concentrations were then plotted against the reciprocal of substrate concentrations. The intercepts of the created trendlines were uti‐ lized to calculate Km and Vmax values of each enzymatic reaction, and evaluation of altera‐

The mark [4] stands for this setting: read-out: IC50 [µM] α-glucosidase.
The mark [5] stands for this setting: read-out: IC50 [µg/mL] α-glucosidase (converted).

T1 sequence (P53341 whole entry): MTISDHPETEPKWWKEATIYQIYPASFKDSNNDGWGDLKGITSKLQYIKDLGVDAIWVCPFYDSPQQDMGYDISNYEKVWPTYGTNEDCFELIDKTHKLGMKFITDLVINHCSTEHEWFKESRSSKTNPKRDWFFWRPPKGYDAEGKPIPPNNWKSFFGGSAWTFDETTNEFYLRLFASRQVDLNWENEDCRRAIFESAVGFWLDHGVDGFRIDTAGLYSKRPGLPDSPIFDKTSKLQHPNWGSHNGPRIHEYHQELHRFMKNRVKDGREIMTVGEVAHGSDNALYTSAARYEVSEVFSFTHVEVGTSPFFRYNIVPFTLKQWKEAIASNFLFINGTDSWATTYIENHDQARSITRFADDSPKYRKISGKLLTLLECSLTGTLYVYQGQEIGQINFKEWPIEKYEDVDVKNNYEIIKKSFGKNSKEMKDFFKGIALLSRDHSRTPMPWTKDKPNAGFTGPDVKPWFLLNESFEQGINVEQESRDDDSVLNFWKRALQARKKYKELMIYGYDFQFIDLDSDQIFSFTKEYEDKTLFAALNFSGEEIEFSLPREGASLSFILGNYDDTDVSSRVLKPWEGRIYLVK

Take `O=C1O[C@H]2[C@@H]3OC(=O)c4cc(O)c(O)c(O)c4-c4c(O)c(O)c5oc(=O)c6c(c(O)c(O)c7oc(=O)c4c5c76)-c4c(cc(O)c(O)c4O)C(=O)OC[C@H]3OC(O)[C@@H]2OC(=O)c2cc(O)c(O)c(O)c2-c2c1cc(O)c(O)c2O` (mixture of isomers) [Punicalagin, punicalagin]: the inhibition at 500 µg/mL in data set [1] was over 70%. Also, in data set [2], the “absorption into the bloodstream” value was “not absorbed into the bloodstream”. Besides, the “Inhibition Type (mode of α-glucosidase inhibition)” value (“Inhibition Type” for short) in data set [3] is on record as “competitive”. Moreover, the IC50 in data set [3] (setting [4]) was 1.1 µM and 1.14 µM; in data set [3] (setting [5]), 1.13 µM.

On to `O=C1OC[C@H]2OC(O)[C@H](O)[C@@H](O)[C@@H]2OC(=O)c2cc(O)c(O)c(O)c2-c2c(O)c(O)c3oc(=O)c4c(c(O)c(O)c5oc(=O)c2c3c54)-c2c1cc(O)c(O)c2O` (mixture of isomers) [punicalin], for which the “absorption into the bloodstream” value in data set [2] is “not absorbed into the bloodstream”.

Turning to `C[C@H]1O[C@H](O[C@H]2[C@H](O)[C@@H](O)[C@@H](O[C@H]3[C@H](O)[C@@H](O)C(O)O[C@@H]3CO)O[C@@H]2CO)[C@H](O)[C@@H](O)[C@@H]1N[C@H]1C=C(CO)[C@@H](O)[C@H](O)[C@H]1O` (some centres unmarked) [Acarbose, acarbose, reference compound], in data set [1], 500 µg/mL produced 13.7% inhibition. Besides, the “Inhibition Type” value in data set [3] was “competitive”.

In data set [1], `O=c1oc2c(O)c(O)cc3c(=O)oc4c(O)c(O)cc1c4c23` [Ellagic acid, ellagic acid] gave an inhibition at 500 µg/mL of over 70% and a α-glucosidase %inhibition of 81.9%. The “Inhibition Type” value in data set [3] is reported as “mixed”. Besides, the IC50 in data set [3] (setting [4]) is 11 µM and 10.8 µM. Also, the IC50 in data set [3] (setting [5]) is 10.8 µM.

Regarding `O=C(O)c1cc(O)c(O)c(O)c1` [Gallic acid, gallic acid], in data set [1], the inhibition at 500 µg/mL is over 70% and the α-glucosidase %inhibition came out at 82.8%. Besides, in data set [3], the “Inhibition Type” value was “mixed”. Besides, the IC50 in data set [3] (setting [4]) came to 686 µM. In addition, in data set [3] (setting [5]), the IC50 was 688 µM and 686 µM.

`O=C(OC[C@H]1OC(O)[C@@H]2OC(=O)c3cc(O)c(O)c(O)c3-c3c(cc(O)c(O)c3O)C(=O)O[C@H]2[C@@H]1OC(=O)c1cc(O)c(O)c(O)c1-c1c(O)c(O)c2oc(=O)c3cc(O)c(O)c4oc(=O)c1c2c43)c1cc(O)c(O)c(O)c1` (some centres unmarked) [Terflavin A, terflavin A] yielded a α-glucosidase %inhibition in data set [1] of over 70%. In data set [3], the “IC50 [µg/mL] α-glucosidase” value is 1.19 µg/mL (≈ 1.1 µM) and the “Inhibition Type” value was “mixed”. Also, in data set [3] (setting [4]), the IC50 came out at 1.1 µM.

In data set [1], `O=C(/C=C/c1ccc(O)cc1)OC[C@H]1O[C@@H](Oc2c(-c3ccc(O)cc3)oc3cc(O)cc(O)c3c2=O)[C@H](O)[C@@H](O)[C@@H]1O` [Tiliroside, kaempferol-3-O-β-(6″-O-p-coumaroyl)glucoside] yielded an inhibition at 500 µg/mL of over 70% and a α-glucosidase %inhibition of 73.6%. Moreover, in data set [3], the “Inhibition Type” value was “mixed”. In addition, the IC50 in data set [3] (setting [4]) is 283 µM. Also, the IC50 in data set [3] (setting [5]) was 283 µM.

As to `O=c1c(O[C@@H]2O[C@H](CO)[C@H](O)[C@H](O)[C@H]2O)c(-c2ccc(O)c(O)c2)oc2cc(O)cc(O)c12` [hyperoside, quercetin-3-O-β-galactoside], the inhibition at 500 µg/mL in data set [1] came to 26%.

On to `O=c1c(O)c(-c2ccc(O)cc2)oc2cc(O)cc(O)c12` [kaempferol], for which at 500 µg/mL the inhibition in data set [1] was 17.6%.

For the molecule `O=c1c(O)c(-c2ccc(O)c(O)c2)oc2cc(O)cc(O)c12` [quercetin], the inhibition at 500 µg/mL in data set [1] was 30 to 40%.

On to Cistusin, for which the α-glucosidase %inhibition in data set [1] was over 70%. The “IC50 [µg/mL] α-glucosidase” value in data set [3] is given as 0.83 µg/mL. In addition, the “Inhibition Type” value in data set [3] is listed as “mixed”. Also, the IC50 in data set [3] (listed as cistusin, read-out: IC50 [µM] α-glucosidase) worked out at 0.7 µM; in data set [3] (setting [4]), 0.66 µM.

For orientation: inhibition means the drop in the measured response relative to a control, in per cent. A higher inhibition goes with a strong effect.

The values are drawn from article PMC10045904, “Polyphenol Profile of Cistus × incanus L. and Its Relevance to Antioxidant Effect and α-Glucosidase Inhibition” (Antioxidants, 2023).
